“Also recorded” adds a separate entry of the source.
Key:
rat βGK promoter = assay: On-line monitoring of βGK promoter-driven GFP expression (prβGK.GFP) in transfected HIT-T15 cells, islet cells and islets; assay type: cell-based, hamster (HIT-T15), rat (islet cells); conditions: for effect of inhibitor on insulin-stimulated βGK transcription / promoter activity: 5 mU/ml insulin 5 min, 150 nM BIM, 20 μM PD98059, 10 μM PD169316, 100 μM HNMPA-(AM)3, 400 nM AC, FIG. 5; for effect of inhibitor on insulin-stimulated βGK transcription / promoter activity / effect of inhibitor on insulin-stimulated βGK promoter activity (GFP) in the same co-transfected cell: 25 μM LY294002, 10 nM rapamycin; for effect of inhibitor on insulin-stimulated βGK promoter activity (GFP) in the same co-transfected cell: 5 mU/ml insulin, 400 nM AC, 100 μM HNMPA-(AM)3
From the text: Construction of prIns1.GFP has been described earlier (Leibiger et al., 1998a). Vector prIns1.DsRed was generated by exchanging the EGFP-expression cassette versus the DsRed-expression cassette obtained from pDsRed1-1 (Clontech). Plasmid prβGK.GFP (i.e. prβGK-278.GFP) was generated by exchanging the CAT-SV40pA-expression cassette of prβGK-278.CAT (Leibiger et al., 1994a) versus the EGFP-bGHpA-expression cassette obtained from pRcCMVI.GFP (Moede et al., 1999). […] All vector constructions were verified by DNA sequence analysis. […] Expression constructs pCMV5.PKBα, pCMV5.PKBαΔ308/437, pCMV5.PDK1 and pCMV5.PDK1-antisense were kindly provided by Drs. P. Cohen and D. R. Alessi (MRC Phosphorylation Unit, University of Dundee, UK).
HIT cells were reported to show glucose responsiveness at subphysiological concentrations between 0.1 and 2 mM (Sharma et al., 1995). HIT cells were grown in RPMI 1640 medium supplemented with 100 units/ml penicillin, 100 μg/ml streptomycin, 2 mM glutamine and 10% fetal calf serum at 5% CO2 and 37° C. Pancreatic islets were isolated from normally fed male Wistar rats and from mice by collagenase digestion. Isolated islets were incubated overnight at 5% CO2 and 37° C. in RPMI 1640 medium, supplemented as described above. Transfection of HIT-T15 and islet cells was performed overnight by the lipofectamine technique in RPMI 1640 medium, without serum and antibiotics. For on-line monitoring, cells were grown and transfected on 24-mm glass coverslips. Following transfection, HIT cells were cultured for 12-18 h in RPMI 1640 medium containing 0.1 mM glucose, 10% fetal calf serum and supplemented as above. Before stimulation, islets and islet cells were incubated for 2 h in RPMI 1640 medium, supplemented as above but containing 3 mM glucose. All expression constructs were prepared using the Qiagen Plasmid Maxi Kit (Qiagen), except those used to produce the adenoviruses which where purified by ultracentrifugation via a CsCI-gradient (as described in Sambrook et al, 1989).
Islets were transduced with Ad.rβGK.GFP or Ad.CMV.GFP by incubating 50 islets with 1 ml virus-containing medium for 90 min at 37° C. and 5% CO2. Following transduction, islets were washed 3 times with PBS and cultured further in RPMI 1640 medium. Islets were stimulated 40-72 h after transduction, as described below and analyzed by laser-scanning confocal microscopy.
All experiments were performed in RPMI 1640 medium, supplemented as above. Protein kinase inhibitors, antibodies or nifedipine were added to the culture medium 30 min prior to stimulation and were kept in the medium throughout stimulation. After stimulation islets, islet cells and HIT cells were cultured further at substimulatory glucose concentrations (0.1 mM for HIT cells and 3 mM for islets and islet cells). For RNA-analysis, islets and cells were harvested 60 min after start of stimulation, if not indicated otherwise. For analysis of protein kinase activities or tyrosine phosphorylation, cells were harvested immediately following stimulation.
Detection of fluorescence by digital imaging fluorescence microscopy was performed as described previously (Leibiger et al., 1998a; Leibiger et al., 1998b). Briefly, transfected cells were grown on 24-mm glass coverslips. After stimulation the coverslips were placed into a perifusion chamber which was mounted on an inverted microscope (Zeiss Axiovert 135TV). Temperature was kept at 37° C. and the cells were perfused with RPMI 1640 medium. The objective lens used was a Zeiss-Fluar ×40/1.30 oil Imm Korr. Fluorescence imaging was performed with a cooled charged-coupled device camera (CH250 with KAF 1400, Photometrics, Tucson, Ariz.) connected to an imaging system (Inovision) with fluorescence excitation from a SPEX fluorolog-2 CM1T11I spectrofluorometer (Spex Industries).

PKB/c-Akt = PKB/c-Akt Ser473 phosphorylation and PKB activity in HIT cells; assay type: cell-based, hamster
Method: Phosphorylated PKB/c-Akt was analyzed by employing the PhosphoPlus Akt(Ser473) Antibody Kit (New England Biolabs) according to the manufacturer's instructions. Briefly, HIT cells were cultured as described above. […] Following centrifugation of the lysate for 20 min at 14,000×g and 4° C., aliquotes of the supernatant containing 200 μg protein were separated by SDS-PAGE over a 7.5% polyacrylamide gel. Proteins were electro-transferred onto PVDF-membrane (Immobilon-P, Millipore) overnight at stabilized 125 mA. Immunoblotting was performed with either rabbit polyclonal Phospho-Akt(Ser473) antibody or with rabbit polyclonal […] antibody and HRP-conjugated secondary antibodies. For detection the membrane was incubated with LumiGLO containing peroxide and exposed to X-ray film.
Analysis of PKB/Akt activity was performed employing the Akt1-PKBα e Immunoprecipitation Kinase Assay Kit (Upstate Biotech.) according to the manufacturer's instructions. Lysates of HIT cells containing 1 mg of protein were subjected to immunoprecipitation. The immunoprecipitate was used for PKB/Akt kinase assay using γ[^32P]-ATP and Akt/SGK-specific substrate peptide. Phosphorylated substrates were blotted onto phosphocellulose P81 paper and analyzed by LSC.

Compound | βGK promoter-driven GFP fluorescence upon insulin stimulation (rat βGK promoter; 5 mU insulin per ml for 5 min, substimulatory glucose) | amount of exogenous insulin required to gain an effect on βGK promoter activation (rat βGK promoter; transfected HIT-T15 cells, supplemented culture medium (FIG. 4B)) [μU per ml] | time following stimulation at which PKB activation (Ser473 phosphorylation) was observed (PKB/c-Akt; 16.7 mM glucose or 5 mU insulin/ml at substimulatory glucose) [min] | effect of inhibitor on insulin-stimulated βGK transcription / promoter activity (rat βGK promoter) | effect of inhibitor on insulin-stimulated βGK promoter activity (GFP) in the same co-transfected cell (rat βGK promoter) | effect on glucose-induced activation of PKB (PKB/c-Akt; FIG. 7E, PKB activity 10 min after start of glucose stimulation)
insulin | increase; also recorded: elevation | 20 | 2 |  |  | 
CC(=O)OCOC(c1ccc2ccccc2c1)P(=O)(OCOC(C)=O)OCOC(C)=O (centres unmarked) [HNMPA-(AM)3] |  |  |  | sensitive | abolished | abolished
autocamtide-2 related inhibitory peptide |  |  |  | altered neither | no effect | 
